Our source for the IC50 values is US11590139B2, “Substituted aminopurine compounds, compositions thereof, and methods of treatment therewith” (Signal Pharmaceuticals, LLC, priority 2014, dated 2023).

Each structure is given as a SMILES string. pIC50: −log10 of the molar value.

The first assay has as its system Lox-IMVI melanoma cell line. The experiment in a line: Lox-IMVI anti-proliferative assay (growth inhibition, Cell Titer-Glo). It counts as cell-based, human. The following applies: Homo sapiens; IC50 activity level in the cell-based Lox-IMVI anti-proliferative assay; read-out: Activity. An outline of the steps:
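First, compound was dispensed as a 10-point 3-fold series (0.5 nM–10 μM, duplicate). Then cells in RPMI + 10% FBS were added and grown 72 h at 37 °C with 0.2% DMSO. Finally, ATP luminescence was read and IC50 calculated versus DMSO control.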
(In ATP-based viability assays light output follows the ATP content of the culture.)
Regarding `NC(=O)[C@H]1CC[C@@H](n2c(Nc3cc(F)cc(Cl)c3F)nc3cnc(N[C@H]4C[C@H](O)C4)nc32)CC1` [Example 287, (1s,4s)-4-(8-(3-chloro-2,5-difluorophenylamino)-2-((1R,3r)-3-hydroxycyclobutylamino)-9H-purin-9-yl)cyclohexanecarboxamide], the pIC50 is below 6.00. On the same count and under the same terms, the same measure for `NC(=O)[C@H]1CC[C@@H](n2c(Nc3c(Cl)cc(F)cc3Cl)nc3cnc(N[C@@H]4CCCOC4)nc32)CC1` [Example 189, (1S,4s)-4-(8-(2,6-dichloro-4-fluorophenylamino)-2-((R)-tetrahydro-2H-pyran-3-ylamino)-9H-purin-9-yl)cyclohexanecarboxamide]: below 6.00. Still for that read-out and setting: under `NC(=O)[C@H]1CC[C@@H](n2c(Nc3cccc(Cl)c3F)nc3cnc(NC4CCC(F)(F)CC4)nc32)CC1` [Example 237, (1s,4s)-4-(8-(3-chloro-2-fluorophenylamino)-2-(4,4-difluorocyclohexylamino)-9H-purin-9-yl)cyclohexanecarboxamide] stands below 6.00. The same measure, in the same setting: the same measure for `NC(=O)[C@H]1CC[C@@H](n2c(Nc3cccc(Cl)c3F)nc3cnc(NC4CCCC4)nc32)CC1` [Example 140, (1s,4s)-4-(8-(3-chloro-2-fluorophenylamino)-2-(cyclopentylamino)-9H-purin-9-yl)cyclohexanecarboxamide]: below 6.00. Regarding `CC[C@H](C)Nc1ncc2nc(Nc3c(F)cc(F)cc3F)n([C@H]3CC[C@@H](C(N)=O)CC3)c2n1` [Example 334, (1R,4s)-4-(2-(sec-butylamino)-8-(2,4,6-trifluorophenylamino)-9H-purin-9-yl)cyclohexanecarboxamide], the pIC50 was 6.00 to 6.30. For the compound `NC(=O)[C@H]1CC[C@@H](n2c(Nc3c(F)cc(Cl)cc3Cl)nc3cnc(NC4CCC4)nc32)CC1` [Example 130, (1s,4s)-4-(2-(cyclobutylamino)-8-(2,4-dichloro-6-fluorophenylamino)-9H-purin-9-yl)cyclohexanecarboxamide], the pIC50 was below 6.00. Still for that read-out and setting: the same measure for `NC(=O)[C@H]1CC[C@@H](n2c(Nc3c(F)cc(Cl)cc3Cl)nc3cnc(NC4CC(F)(F)C4)nc32)CC1` [Example 230, (1s,4s)-4-(8-(2,4-dichloro-6-fluorophenylamino)-2-(3,3-difluorocyclobutylamino)-9H-purin-9-yl)cyclohexanecarboxamide]: 6.30 to 6.60; for `NC(=O)[C@H]1CC[C@@H](n2c(Nc3c(F)ccc(F)c3F)nc3cnc(NC4CCC(F)(F)CC4)nc32)CC1` [Example 239, (1s,4s)-4-(2-(4,4-difluorocyclohexylamino)-8-(2,3,6-trifluorophenylamino)-9H-purin-9-yl)cyclohexanecarboxamide]: 6.00 to 6.30; for `NC(=O)[C@H]1CC[C@@H](n2c(Nc3c(F)cc(Cl)cc3F)nc3cnc(NC4CCCC4)nc32)CC1` [Example 120, (1s,4s)-4-(8-(4-chloro-2,6-difluorophenylamino)-2-(cyclopentylamino)-9H-purin-9-yl)cyclohexanecarboxamide]: 6.30 to 6.60.

In the case of `C[C@@H]1CC[C@@H](Nc2ncc3nc(Nc4c(F)cccc4Cl)n([C@H]4CC[C@@H](C(N)=O)CC4)c3n2)C[C@H]1O` [Example 342, (1S,4s)-4-(8-(2-chloro-6-fluorophenylamino)-2-((1R,3R,4R)-3-hydroxy-4-methylcyclohexylamino)-9H-purin-9-yl)cyclohexanecarboxamide], the pIC50 was below 6.00.

Turning to `NC(=O)[C@H]1CC[C@@H](n2c(Nc3c(Cl)cc(Cl)cc3Cl)nc3cnc(N[C@H]4CCOC[C@@H]4F)nc32)CC1` [Example 246, (1R,4s)-4-(2-((3R,4S)-3-fluorotetrahydro-2H-pyran-4-ylamino)-8-(2,4,6-trichlorophenylamino)-9H-purin-9-yl)cyclohexanecarboxamide], the pIC50 is 6.00 to 6.30.

The assay is the same for the next values; noted with them: Homo sapiens; Lox-IMVI anti-proliferative assay, IC50 activity level; read-out: Activity.
For `C[C@]1(C(N)=O)CC[C@H](n2c(Nc3c(F)cc(Cl)cc3Cl)nc3cnc(NC4CCCC4)nc32)CC1` [Example 492, (1r,4r)-4-(2-(cyclopentylamino)-8-(2,4-dichloro-6-fluorophenylamino)-9H-purin-9-yl)-1-methylcyclohexanecarboxamide], the pIC50 was 6.00 to 6.30. Still for that read-out and setting: the same measure for `C[C@]1(C(N)=O)CC[C@@H](n2c(Nc3c(Cl)cc(Cl)cc3Cl)nc3cnc(NC4CCCC4)nc32)CC1` [Example 574, (1s,4s)-4-(2-(cyclopentylamino)-8-(2,4,6-trichlorophenylamino)-9H-purin-9-yl)-1-methylcyclohexanecarboxamide]: 6.30 to 6.60; for `C[C@]1(C(N)=O)CC[C@H](n2c(Nc3c(Cl)cc(F)cc3Cl)nc3cnc(NC4CCCC4)nc32)CC1` [Example 493, (1r,4r)-4-(2-(cyclopentylamino)-8-(2,6-dichloro-4-fluorophenylamino)-9H-purin-9-yl)-1-methylcyclohexanecarboxamide]: below 6.00. For the compound `NC(=O)[C@H]1CC[C@@H](n2c(Nc3c(F)cc(F)cc3F)nc3cnc(N[C@@H]4CCC[C@@H](O)C4)nc32)CC1` [Example 418, (1S,4s)-4-(2-((1R,3R)-3-hydroxycyclohexylamino)-8-(2,4,6-trifluorophenylamino)-9H-purin-9-yl)cyclohexanecarboxamide], the pIC50 is below 6.00. Still for that read-out and setting: under `C[C@]1(C(N)=O)CC[C@H](n2c(Nc3c(F)cc(F)cc3Cl)nc3cnc(NC4CCCC4)nc32)CC1` [Example 491, (1r,4r)-4-(8-(2-chloro-4,6-difluorophenylamino)-2-(cyclopentylamino)-9H-purin-9-yl)-1-methylcyclohexanecarboxamide] stands below 6.00.

Still in this assay, the particulars now being: Homo sapiens; Lox-IMVI melanoma cell line, anti-proliferative assay; read-out: Activity (IC50 activity level).
Consider `C[C@]1(C(N)=O)CC[C@@H](n2c(Nc3c(F)cc(Cl)cc3Cl)nc3cnc(N[C@H]4CCC[C@@H](O)C4)nc32)CC1` [Example 628, (1R,4s)-4-(8-(2,4-dichloro-6-fluorophenylamino)-2-((1S,3R)-3-hydroxycyclohexylamino)-9H-purin-9-yl)-1-methylcyclohexanecarboxamide], for which the pIC50 is above 6.60. Turning to `C[C@]1(C(N)=O)CC[C@@H](n2c(Nc3c(Cl)cc(C#N)cc3Cl)nc3cnc(NC4CC(F)(F)C4)nc32)CC1` [Example 666, (1s,4s)-4-(8-(2,6-dichloro-4-cyanophenylamino)-2-(3,3-difluorocyclobutylamino)-9H-purin-9-yl)-1-methylcyclohexanecarboxamide], the pIC50 was above 6.60. For the compound `CC1(C)COCC[C@H]1Nc1ncc2nc(Nc3c(F)cc(Cl)cc3Cl)n([C@H]3CC[C@@H](C(N)=O)CC3)c2n1` [Example 764, (1S,4s)-4-(8-(2,4-dichloro-6-fluorophenylamino)-2-((R)-3,3-dimethyltetrahydro-2H-pyran-4-ylamino)-9H-purin-9-yl)cyclohexanecarboxamide], the pIC50 is 6.00 to 6.30. Same read-out and setting: the same measure for `NC(=O)[C@H]1CC[C@@H](n2c(Nc3c(Cl)cc(C(F)(F)F)cc3Cl)nc3cnc(N[C@@H]4CCCN(Cc5ccccc5)C4)nc32)CC1` [Example 754, (1S,4s)-4-(2-((R)-1-benzylpiperidin-3-ylamino)-8-(2,6-dichloro-4-(trifluoromethyl)phenylamino)-9H-purin-9-yl)cyclohexanecarboxamide]: below 6.00. Take `C[C@]1(C(N)=O)CC[C@@H](n2c(Nc3c(F)cc(C#N)cc3Cl)nc3cnc(N[C@@H]4CCC[C@@H](O)C4)nc32)CC1` [Example 623, (1S,4s)-4-(8-(2-chloro-4-cyano-6-fluorophenylamino)-2-((1R,3R)-3-hydroxycyclohexylamino)-9H-purin-9-yl)-1-methylcyclohexanecarboxamide]: the pIC50 is 6.30 to 6.60.
